Test results reported in patent US8192962B2, “Processes for detecting toxic substances” (Daikin Industries, Ltd., priority 2001, dated 2012).

Tested on: Detoxification protein genes
Test: DNA chip mRNA expression in yeast, detoxification protein genes (Table 8)
Format: cell-based, Saccharomyces cerevisiae S288C
Experimental: Yeast (Saccharomyces cerevisiae S288C (α SUC2mal mel gap2 CUP1)) were incubated at 25° C. on YPD medium (yeast extract 1%, polypepton 2%, glucose 2%). One of toxic chemical substances was added to the cells at logarithmic growth phase, and the cells were further incubated for two hours. Cells were cultured without any chemical substance in the same condition, and were used as control. Concentrations of the chemical substances were defined to inhibit the growth of the yeast but not lead to death.
After completion of the incubation, the culture was centrifuged to collect the cells. To the cells, sodium acetate buffer (50 mM sodium acetate, 10 mM EDTA, 1% SDS) was added, and the mixture was shaken at 65° C. for five minutes, followed by returning to room temperature, and obtaining the supernatant, of which the procedures were repeated two times. To the supernatant, ½ amount of a solution of phenol/chloroform was added, and the mixture was centrifuged to give a supernatant, which was added with an equal amount of chloroform, and the mixture was centrifuged to give a supernatant. To the supernatant, an equal amount of isopropanol containing 0.3 M sodium acetate was added, and the mixture was allowed to stand at room temperature for 30 minutes, after which the mixture was centrifuged to give a sediment of the whole RNAs. Seventy % ethanol was added to the sediment, and the mixture was again centrifuged to give a sediment, which was then dried and dissolved in water. mRNA was isolated from the whole RNAs as followings. In view of the fact that a poly A chain is attached to the 3′ terminus of mRNA, a polynucleotide having a poly T structure which was immobilized on the surface of latex beads was used to trap the mRNA, and then the mRNA was washed and eluted with spine column (Oligotex-dT30<Super>mRNA Purification Kit, Takara). Reverse transcription of the mRNA was conducted with a reverse transcriptase (Super Script II Reverse Transcriptase; catalogue No. 18064-014, GibcoBRL) using fluorescence-labeled nucleotides to give cDNAs that were introduced with Cy3-dUTP or Cy5-dUTP during the reverse transcription.
The labeled cDNAs were dissolved in TE buffer (10mM Tris-HCl/1 mM EDTA, pH8.0), and the solution was dropped on the DNA chip containing the whole genes of yeast (DNA Chip Research Inc. Japan) so that the cDNAs were hybridized on the DNA chip at 65° C. for over 12 hours. The fluoresces intensity of the DNA chip was read with a scanner, and the ratio relative to the fluorescence intensity resulting from the absence of chemical substance was estimated as the following, which is shown in Tables 1 to 9: […]

## S=C([S-])NCCNC(=S)[S-].[Zn+2] [(11), zinc N,N′-ethylenebis(dithiocarbamate)]
Yeast gene YBL064C
  The level of expressed mRNA in the presence of chemical substance/The level of expressed mRNA in the absence of chemical substance: 2.9
Yeast gene YBR008C
  The level of expressed mRNA in the presence of chemical substance/The level of expressed mRNA in the absence of chemical substance: 9.4
Yeast gene YBR145W
  The level of expressed mRNA in the presence of chemical substance/The level of expressed mRNA in the absence of chemical substance: 1.1
Yeast gene YBR244W
  The level of expressed mRNA in the presence of chemical substance/The level of expressed mRNA in the absence of chemical substance: 1.5
Yeast gene YBR293W
  The level of expressed mRNA in the presence of chemical substance/The level of expressed mRNA in the absence of chemical substance: 1.1
Yeast gene YCL035C
  The level of expressed mRNA in the presence of chemical substance/The level of expressed mRNA in the absence of chemical substance: 2.1
Yeast gene YCL069W
  The level of expressed mRNA in the presence of chemical substance/The level of expressed mRNA in the absence of chemical substance: 1.0
Yeast gene YCR083W
  The level of expressed mRNA in the presence of chemical substance/The level of expressed mRNA in the absence of chemical substance: 1.8
Yeast gene YDL100C
  The level of expressed mRNA in the presence of chemical substance/The level of expressed mRNA in the absence of chemical substance: 2.8
Yeast gene YDL168W
  The level of expressed mRNA in the presence of chemical substance/The level of expressed mRNA in the absence of chemical substance: 1.9
Yeast gene YDR256C
  The level of expressed mRNA in the presence of chemical substance/The level of expressed mRNA in the absence of chemical substance: 1.4
Yeast gene YDR453C
  The level of expressed mRNA in the presence of chemical substance/The level of expressed mRNA in the absence of chemical substance: 2.3
Yeast gene YDR513W
  The level of expressed mRNA in the presence of chemical substance/The level of expressed mRNA in the absence of chemical substance: 2.0
Yeast gene YDR538W
  The level of expressed mRNA in the presence of chemical substance/The level of expressed mRNA in the absence of chemical substance: 0.9
Yeast gene YEL027W
  The level of expressed mRNA in the presence of chemical substance/The level of expressed mRNA in the absence of chemical substance: 0.9
Yeast gene YEL065W
  The level of expressed mRNA in the presence of chemical substance/The level of expressed mRNA in the absence of chemical substance: 0.6
Yeast gene YER185W
  The level of expressed mRNA in the presence of chemical substance/The level of expressed mRNA in the absence of chemical substance: 1.6
Yeast gene YFL050C
  The level of expressed mRNA in the presence of chemical substance/The level of expressed mRNA in the absence of chemical substance: 1.2
Yeast gene YGL013C
  The level of expressed mRNA in the presence of chemical substance/The level of expressed mRNA in the absence of chemical substance: 0.9
Yeast gene YGL254W
  The level of expressed mRNA in the presence of chemical substance/The level of expressed mRNA in the absence of chemical substance: 1.1
Yeast gene YGR088W
  The level of expressed mRNA in the presence of chemical substance/The level of expressed mRNA in the absence of chemical substance: 3.9
Yeast gene YGR138C
  The level of expressed mRNA in the presence of chemical substance/The level of expressed mRNA in the absence of chemical substance: 0.7
Yeast gene YGR197C
  The level of expressed mRNA in the presence of chemical substance/The level of expressed mRNA in the absence of chemical substance: 1.1
Yeast gene YGR209C
  The level of expressed mRNA in the presence of chemical substance/The level of expressed mRNA in the absence of chemical substance: 3.1
Yeast gene YGR224W
  The level of expressed mRNA in the presence of chemical substance/The level of expressed mRNA in the absence of chemical substance: 0.8
Yeast gene YHL040C
  The level of expressed mRNA in the presence of chemical substance/The level of expressed mRNA in the absence of chemical substance: 1.7
Yeast gene YHL047C
  The level of expressed mRNA in the presence of chemical substance/The level of expressed mRNA in the absence of chemical substance: 1.0
Yeast gene YHR008C
  The level of expressed mRNA in the presence of chemical substance/The level of expressed mRNA in the absence of chemical substance: 2.1
Yeast gene YHR048W
  The level of expressed mRNA in the presence of chemical substance/The level of expressed mRNA in the absence of chemical substance: 2.0
Yeast gene YHR053C
  The level of expressed mRNA in the presence of chemical substance/The level of expressed mRNA in the absence of chemical substance: 1.4
Yeast gene YHR055C
  The level of expressed mRNA in the presence of chemical substance/The level of expressed mRNA in the absence of chemical substance: 1.8
Yeast gene YIR002C
  The level of expressed mRNA in the presence of chemical substance/The level of expressed mRNA in the absence of chemical substance: 0.8
Yeast gene YIR038C
  The level of expressed mRNA in the presence of chemical substance/The level of expressed mRNA in the absence of chemical substance: 3.4
Yeast gene YJL101C
  The level of expressed mRNA in the presence of chemical substance/The level of expressed mRNA in the absence of chemical substance: 2.7
Yeast gene YJR104C
  The level of expressed mRNA in the presence of chemical substance/The level of expressed mRNA in the absence of chemical substance: 2.6
Yeast gene YKL026C
  The level of expressed mRNA in the presence of chemical substance/The level of expressed mRNA in the absence of chemical substance: 3.0
Yeast gene YKL064W
  The level of expressed mRNA in the presence of chemical substance/The level of expressed mRNA in the absence of chemical substance: 0.7
Yeast gene YKR066C
  The level of expressed mRNA in the presence of chemical substance/The level of expressed mRNA in the absence of chemical substance: 1.3
Yeast gene YKR105C
  The level of expressed mRNA in the presence of chemical substance/The level of expressed mRNA in the absence of chemical substance: 0.0
Yeast gene YKR106W
  The level of expressed mRNA in the presence of chemical substance/The level of expressed mRNA in the absence of chemical substance: 1.8
Yeast gene YLL028W
  The level of expressed mRNA in the presence of chemical substance/The level of expressed mRNA in the absence of chemical substance: 0.7
Yeast gene YLL057C
  The level of expressed mRNA in the presence of chemical substance/The level of expressed mRNA in the absence of chemical substance: 1.3
Yeast gene YLL060C
  The level of expressed mRNA in the presence of chemical substance/The level of expressed mRNA in the absence of chemical substance: 14.1
Yeast gene YLR043C
  The level of expressed mRNA in the presence of chemical substance/The level of expressed mRNA in the absence of chemical substance: 1.4
Yeast gene YLR046C
  The level of expressed mRNA in the presence of chemical substance/The level of expressed mRNA in the absence of chemical substance: 0.9
Yeast gene YML028W
  The level of expressed mRNA in the presence of chemical substance/The level of expressed mRNA in the absence of chemical substance: 1.0
Yeast gene YML116W
  The level of expressed mRNA in the presence of chemical substance/The level of expressed mRNA in the absence of chemical substance: 4.3
Yeast gene YMR015C
  The level of expressed mRNA in the presence of chemical substance/The level of expressed mRNA in the absence of chemical substance: 1.0
Yeast gene YMR038C
  The level of expressed mRNA in the presence of chemical substance/The level of expressed mRNA in the absence of chemical substance: 2.7
Yeast gene YNL239W
  The level of expressed mRNA in the presence of chemical substance/The level of expressed mRNA in the absence of chemical substance: 1.9
Yeast gene YNL241C
  The level of expressed mRNA in the presence of chemical substance/The level of expressed mRNA in the absence of chemical substance: 3.0
Yeast gene YNL259C
  The level of expressed mRNA in the presence of chemical substance/The level of expressed mRNA in the absence of chemical substance: 1.6
Yeast gene YOL158C
  The level of expressed mRNA in the presence of chemical substance/The level of expressed mRNA in the absence of chemical substance: 0.7
Yeast gene YOR031W
  The level of expressed mRNA in the presence of chemical substance/The level of expressed mRNA in the absence of chemical substance: 1.2
Yeast gene YOR153W
  The level of expressed mRNA in the presence of chemical substance/The level of expressed mRNA in the absence of chemical substance: 1.0
Yeast gene YOR247W
  The level of expressed mRNA in the presence of chemical substance/The level of expressed mRNA in the absence of chemical substance: 2.9
Yeast gene YOR251C
  The level of expressed mRNA in the presence of chemical substance/The level of expressed mRNA in the absence of chemical substance: 1.0
Yeast gene YOR273C
  The level of expressed mRNA in the presence of chemical substance/The level of expressed mRNA in the absence of chemical substance: 1.5
Yeast gene YPL163C
  The level of expressed mRNA in the presence of chemical substance/The level of expressed mRNA in the absence of chemical substance: 0.5
Yeast gene YPR200C
  The level of expressed mRNA in the presence of chemical substance/The level of expressed mRNA in the absence of chemical substance: 2.0
